Drawing on the RepoRT retention time repository (doi:10.1021/acs.analchem.1c00972), this text covers LC retention time for 42 compounds.

Series [1] is described as follows: RP, Waters ACQUITY UPLC BEH C18, 100 × 1 mm, 1.7 µm, 50 °C, 0.3 mL/min, estimated dead time 0.17 min; A: water + 10 mM ammonium bicarbonate; B: 10% water + 90% methanol + 10 mM ammonium bicarbonate; gradient (min/%B) 0/0 15/100 21/100 22/0 30/0. To be noted: stereoisomer not certain.
A short description of series [2]: RP, Waters ACQUITY UPLC BEH C18, 100 × 1 mm, 1.7 µm, 50 °C, 0.3 mL/min, estimated dead time 0.17 min; A: water + 0.1% formic acid + 20 mM ammonium formate; B: methanol + 0.1% formic acid + 20 mM ammonium formate; gradient (min/%B) 0/0 15/100 21/100 22/0 30/0. As to conditions: stereoisomer not certain.

On to `CCCCNc1ccc(C(=O)OCCN(C)C)cc1` [Tetracain], for which the LC retention time was 15.2 min in series [1] and 11.4 min in series [2].
In the case of `CN(C)C(=O)C(CCN1CCC(O)(c2ccc(Cl)cc2)CC1)(c1ccccc1)c1ccccc1` [Loperamide], the LC retention time was 16.3 min in series [1] and 13.7 min in series [2].
On the same counts, the results for `CCNc1nc(NC(C)CC)[nH]c(=O)n1` (centres undefined) [Sebuthylazine-2-hydroxy] are 12 min and 9.91 min.
`C=C1CC(=CC)C(=O)OC2CC[N+]3([O-])CC=C(COC(=O)C1(C)O)C23` (centres undefined) [Seneciphylline N-oxide]: the LC retention time in series [1] was 8.91 min; in series [2], 8.11 min.
On the same counts, the results for `CCOC(=O)CC(O)(CC(=O)OCC)C(=O)OCC` [Triethylcitrate] are 12.1 min and 11.9 min.
For the compound `CN1Cc2c(ccc3c2OCO3)C2C(O)Cc3cc4c(cc3C21)OCO4` (single isomer, unassigned; (+)) [(+)-Chelidonine], the LC retention time in series [1] is 15.3 min; in series [2] it was 9.34 min.
As to `COc1ccc(C(=CC(=O)N2CCOCC2)c2ccc(Cl)cc2)cc1OC` [Dimethomorph], the LC retention time is 14.7 min in series [1] and 14.4 min in series [2].
Take `COC(=O)c1ccccc1S(=O)(=O)NC(=O)N(C)c1nc(C)nc(OC)n1` [Tribenuron-methyl]: the LC retention time in series [1] was 9.4 min; in series [2], 12.8 min.
For the compound `Clc1ccc2c(c1)CCc1cccnc1C2=C1CCNCC1` [Desloratadine], the LC retention time in series [1] is 14.7 min; in series [2], 11.9 min.
On the same counts, the results for `CC(=O)C1(O)CCC2C3CCC4=CC(=O)CCC4(C)C3CCC21C` (stereo not drawn) [17alpha-Hydroxyprogesterone] are 14.8 min and 14.5 min.
Take `O=c1ccc2ccc(O)cc2o1` [Umbelliferone]: the figures for the LC retention time in series [1] and in series [2] were 6.78 min and 8.73 min, respectively.
Consider `C=CCOC(=O)C(C)(C)OC(=O)c1cc(-n2c(=O)cc(C(F)(F)F)n(C)c2=O)ccc1Cl` [Butafenacil], for which the LC retention time in series [1] was 15.1 min; in series [2], 14.8 min.
For the compound `COC1CC(CC2CCC(C)C(C(C)C(=O)O)O2)OC2(OC(C)(C3CCC(C)(C4OC(C5OC(O)(CO)C(C)CC5C)CC4C)O3)CC2C)C1C` (centres undefined) [Nigericin], the LC retention time is 19.7 min in series [1] and 18.8 min in series [2].
As to `CCN(CCO)CCCC(C)Nc1ccnc2cc(Cl)ccc12` (centres undefined) [Hydroxychloroquine], the LC retention time was 14.1 min in series [1] and 7.34 min in series [2].
As for `Cc1cc(C)c(C2=C(OC(=O)CC(C)(C)C)C3(CCCC3)OC2=O)c(C)c1` [Spiromesifen], the LC retention time in series [1] is 17.7 min; in series [2] it was 17.3 min.
On the same counts, the results for `O=C1CCCCCN1` [epsilon-Caprolactam] are 7 min and 6.99 min.
On the same counts, the results for `C=C1C(=O)OC2C1CCC(C)=CCCC1(C)OC21` (centres undefined) [Parthenolid] are 13.1 min and 12.8 min.
On the same counts, the results for `CCNc1ccc2c(C)cc(=O)oc2c1` [7-(Ethylamino)-4-methylcoumarin] are 12.5 min and 12.2 min.
Turning to `COc1cc2nc(N3CCN(C(=O)C4COc5ccccc5O4)CC3)nc(N)c2cc1OC` (centres undefined) [Doxazosin], the results for the LC retention time in series [1] and in series [2] were 14 min and 11.6 min, respectively.
Take `Nc1c(Cl)cnn(-c2ccccc2)c1=O` [iso-Chloridazon]: the LC retention time in series [1] was 11.6 min; in series [2], 11.4 min.
`CCc1cccc(C)c1N` [6-Ethyl-2-toluidine]: the LC retention time was 12.7 min in series [1] and 10.8 min in series [2].
On the same counts, the results for `CSc1nc2ccccc2s1` [2-(Methylthio)benzothiazole] are 14.3 min and 14 min.
For the compound `O=c1ccc2ccccc2o1` [Coumarin], the LC retention time in series [1] is 9.93 min; in series [2], 9.79 min.
Consider `COc1nc(NC(C)C)nc(NC(C)C)n1` [Prometon], for which the values for the LC retention time in series [1] and in series [2] were 14.1 min and 12.2 min, respectively.
On the same counts, the results for `CC(C)NCC(O)COc1ccc(COCCOC(C)C)cc1` (centres undefined) [Bisoprolol] are 13.8 min and 11.1 min.
Take `COc1cc2c(cc1OC)C1Cc3ccc(OC)c(OC)c3CN1CC2` (centres undefined) [Tetrahydropalmatin]: the values for the LC retention time in series [1] and in series [2] were 14.8 min and 9.6 min, respectively.
As to `CN1C2CCC1C(C(=O)O)C(OC(=O)c1ccccc1)C2` (centres undefined) [Benzoylecgonin], the LC retention time in series [1] was 11.6 min; in series [2] it was 11.5 min.
On to `O=C(Nc1ccc(Cl)cc1C(O)c1ccccc1)c1ccncc1` (centres undefined) [Inabenfide], for which the values for the LC retention time in series [1] and in series [2] were 14.2 min and 13.9 min, respectively.
On the same counts, the results for `CC(C)(C)NCC(O)COc1nsnc1N1CCOCC1` (centres undefined) [Timolol] are 13.2 min and 9.08 min.
On the same counts, the results for `c1ccc(C2CN3CCSC3=N2)cc1` (centres undefined) [Levamisole] are 11.8 min and 6.7 min.
Regarding `O=C(OC1CCCCC1)c1ccccc1C(=O)OC1CCCCC1` [Dicyclohexylphthalat], the LC retention time in series [1] is 12.5 min; in series [2], 14.2 min.
On the same counts, the results for `CC(C)NCC(O)COc1ccc(C(=O)O)cc1` (centres undefined) [Bisoprolol_M3] are 10.4 min and 6.96 min.
For `COc1ccc(Cl)cc1C(=O)NCCc1ccc(S(=O)(=O)NC(=O)NC2CCCCC2)cc1` [Glibenclamide], the LC retention time in series [1] is 13.9 min; in series [2] it was 14.9 min.
On the same counts, the results for `CNC(=O)Oc1ccccc1C(C)C` [Isoprocarb] are 13.1 min and 12.9 min.
For `Nc1ccc(Cc2ccc(N)cc2)cc1` [4,4'-Methylenedianiline], the LC retention time is 10.7 min in series [1] and 5.44 min in series [2].
Take `COc1cc2nc(N(C)CCCNC(=O)C3CCCO3)nc(N)c2cc1OC` (centres undefined) [Alfuzosin]: the LC retention time was 12.3 min in series [1] and 9.73 min in series [2].
`COc1ccc2c(c1)[nH]c1c(C)nccc12` [Harmine]: the LC retention time was 13.5 min in series [1] and 9.88 min in series [2].
Turning to `CC(CN1c2ccccc2Sc2ccccc21)N(C)C` (centres undefined) [Promethazin], the results for the LC retention time in series [1] and in series [2] were 16.8 min and 12.5 min, respectively.
On the same counts, the results for `CCCCCCCCCCS(=O)(=O)O` [1-Decanesulfonic acid] are 14.7 min and 15.1 min.
Take `COc1cc2c3c(c1OC)-c1ccccc1CC3N(C)CC2` (single isomer, unassigned; (-)) [(-)-Nuciferine]: the figures for the LC retention time in series [1] and in series [2] were 15.6 min and 10.5 min, respectively.
On the same counts, the results for `Cc1nc2n(c(=O)c1CCN1CCC(c3noc4cc(F)ccc34)CC1)CCCC2` [Risperidone] are 14.7 min and 10.5 min.
Regarding `CC1C(=O)OC2CCN3CC=C(COC(=O)C(C)(O)C1(C)O)C23` (centres undefined) [Monocrotaline], the LC retention time was 8.97 min in series [1] and 5.17 min in series [2].
